Experimental data taken from US12209087B2, “AKT1 modulators” (Alterome Therapeutics, Inc., priority 2022, dated 2025).

Molecular target: T1, full length AKT E17K (Homo sapiens, UniProt P31749, E17K)
T1 construct: host or cells: HEK-293 (ATCC CRL-1573)
Assay: NanoBRET Target Engagement (TE) Assay
Format: cell-based
Details: competitive tracer displacement in living cells, read-out: AKT1 E17K IC50
Description: The NanoBRET™ Target Engagement (TE) Intracellular Kinase Assays are based on the NanoBRET™ System (Promega Corporation), an energy transfer technique designed to measure molecular proximity in living cells. The NanoBRET™ TE Assays measure the apparent affinity of test compounds by competitive displacement of the NanoBRET™ tracer compound, which is a cell permeable molecule engineered to be reversibly bound to a NanoLuc® luciferase-kinase fusion expressed in cells. For compound screening, when a test compound binds to the selected kinase, the BRET signal is attenuated. […] All cells were evaluated for viability prior to transfection and optimization of the transfection was done prior to experimentation. […] Following transfection, cells were washed and resuspended in Opti-MEM. NanoBRET assays were performed in white, 384-well plates (Corning) at a density of […]. All example compounds were prepared as concentrated stock solutions in DMSO (Sigma-Aldrich). Compounds are dissolved in DMSO to make 10 mM stock solution. […] A Labcyte ECHO 550 compound dispenser was used to facilitate compound transfer directly to cells. Cells were equilibrated for 2 hr with energy transfer probes and example compound prior to BRET measurements. […] For target engagement analysis, the energy transfer probes were added to the cells at concentrations optimized for the target in question (AKT E17K). Following compound incubation, NanoBRET NanoGlo Substrate (Promega Cat #N157D) and Extracellular Nanoluc Inhibitor (Promega Cat #N235C) was added according to the manufacturer's recommended protocol, and luminescence was measured on Envision Reader (Perkin Elmer) Multimode Luminometer equipped with 450 nm BPfilter (donor) and 600 nm LPfilter (acceptor), using 0.5 s integration time. Milli-BRET units (mBU) are calculated by multiplying the raw BRET values by 1000. Apparent tracer affinity values (EC50) were determined using the sigmoidal dose-response (variable slope).
Competitive displacement data were then plotted and data were fit to determine the EC50 value for each example compound.

T1 sequence (P31749 whole entry E17K): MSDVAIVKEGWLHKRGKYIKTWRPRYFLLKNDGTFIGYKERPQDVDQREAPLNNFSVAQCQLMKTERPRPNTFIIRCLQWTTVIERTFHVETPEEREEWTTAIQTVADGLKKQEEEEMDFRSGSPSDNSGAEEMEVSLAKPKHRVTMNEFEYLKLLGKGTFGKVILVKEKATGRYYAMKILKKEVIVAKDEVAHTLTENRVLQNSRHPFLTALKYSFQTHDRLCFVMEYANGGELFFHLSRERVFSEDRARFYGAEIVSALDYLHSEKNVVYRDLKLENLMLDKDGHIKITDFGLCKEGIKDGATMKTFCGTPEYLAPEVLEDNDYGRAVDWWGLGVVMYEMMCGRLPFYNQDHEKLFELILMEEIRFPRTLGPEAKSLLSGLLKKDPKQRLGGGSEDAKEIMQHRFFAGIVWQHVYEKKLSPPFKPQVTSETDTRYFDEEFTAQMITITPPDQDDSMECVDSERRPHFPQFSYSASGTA

IC50	Structure (SMILES)
600 to 10000 nM	N#Cc1cccnc1C(=O)NC1CCN(Cc2ccc(-n3c(-c4cccnc4N)nc4cccnc43)cc2)CC1 [Example 28, N-(1-(4-(2-(2-Aminopyridin-3-yl)-3H-imidazo[4,5-b]pyridin-3-yl)benzyl)piperidin-4-yl)-3-cyanopicolinamide]
600 to 10000 nM	N#Cc1ccncc1C(=O)NC1CCN(Cc2ccc(-n3c(-c4cccnc4N)nc4cccnc43)cc2)CC1 [Example 29, N-(1-(4-(2-(2-Aminopyridin-3-yl)-3H-imidazo[4,5-b]pyridin-3-yl)benzyl)piperidin-4-yl)-4-cyanonicotinamide]
600 to 10000 nM	N#Cc1cccc(C(=O)NC2CCN(Cc3ccc(-n4c(-c5cccnc5N)nc5cccnc54)cc3)CC2)n1 [Example 30, N-(1-(4-(2-(2-Aminopyridin-3-yl)-3H-imidazo[4,5-b]pyridin-3-yl)benzyl)piperidin-4-yl)-6-cyanopicolinamide]
600 to 10000 nM	N#Cc1ccnc(C(=O)NC2CCN(Cc3ccc(-n4c(-c5cccnc5N)nc5cccnc54)cc3)CC2)c1 [Example 31, N-(1-(4-(2-(2-Aminopyridin-3-yl)-3H-imidazo[4,5-b]pyridin-3-yl)benzyl)piperidin-4-yl)-4-cyanopicolinamide]
60 to 600 nM	N#Cc1nccc(C(=O)NC2CCN(Cc3ccc(-n4c(-c5cccnc5N)nc5cccnc54)cc3)CC2)n1 [Example 32, N-(1-(4-(2-(2-Aminopyridin-3-yl)-3H-imidazo[4,5-b]pyridin-3-yl)benzyl)piperidin-4-yl)-2-cyanopyrimidine-4-carboxamide]
600 to 10000 nM	N#Cc1cc(C(=O)NC2CCN(Cc3ccc(-n4c(-c5cccnc5N)nc5cccnc54)cc3)CC2)ncn1 [Example 33, N-(1-(4-(2-(2-Aminopyridin-3-yl)-3H-imidazo[4,5-b]pyridin-3-yl)benzyl)piperidin-4-yl)-6-cyanopyrimidine-4-carboxamide]
60 to 600 nM	N#Cc1nc2cc(C(=O)NC3CCN(Cc4ccc(-n5c(-c6cccnc6N)nc6cccnc65)cc4)CC3)ccc2s1 [Example 34, N-(1-(4-(2-(2-aminopyridin-3-yl)-3H-imidazo[4,5-b]pyridin-3-yl)benzyl)piperidin-4-yl)-2-cyanobenzo[d]thiazole-5-carboxamide]
60 to 600 nM	N#Cc1nc2cc(F)cc(C(=O)NC3CCN(Cc4ccc(-n5c(-c6cccnc6N)nc6cccnc65)cc4)CC3)c2s1 [Example 35, N-(1-(4-(2-(2-Aminopyridin-3-yl)-3H-imidazo[4,5-b]pyridin-3-yl)benzyl)piperidin-4-yl)-2-cyano-5-fluorobenzo[d]thiazole-7-carboxamide]
600 to 10000 nM	N#Cc1cnccc1C(=O)NC1CCN(Cc2ccc(-n3c(-c4cccnc4N)nc4cccnc43)cc2)CC1 [Example 36, N-(1-(4-(2-(2-Aminopyridin-3-yl)-3H-imidazo[4,5-b]pyridin-3-yl)benzyl)piperidin-4-yl)-3-cyanoisonicotinamide]
15 to 60 nM	CC(=O)Nc1cccc(-c2ccc3nc(-c4cccnc4N)n(-c4ccc(CN5CCN(c6ccnc(C#N)c6)CC5)cc4)c3n2)c1 [Example 37, N-(3-(2-(2-Aminopyridin-3-yl)-3-(4-((4-(2-cyanopyridin-4-yl)piperazin-1-yl)methyl)phenyl)-3H-imidazo[4,5-b]pyridin-5-yl)phenyl)acetamide]
60 to 600 nM	CC(=O)Nc1cccc(-c2ccc3nc(-c4cccnc4N)n(-c4ccc(CN5CCN(c6ccc(C#N)nc6)CC5)cc4)c3n2)c1 [Example 38, N-(3-(2-(2-Aminopyridin-3-yl)-3-(4-((4-(6-cyanopyridin-3-yl)piperazin-1-yl)methyl)phenyl)-3H-imidazo[4,5-b]pyridin-5-yl)phenyl)acetamide]
60 to 600 nM	CC(=O)Nc1cccc(-c2ccc3nc(-c4cccnc4N)n(-c4ccc(CN5CCN(c6cccc(C#N)n6)CC5)cc4)c3n2)c1 [Example 39, N-(3-(2-(2-Aminopyridin-3-yl)-3-(4-((4-(6-cyanopyridin-2-yl)piperazin-1-yl)methyl)phenyl)-3H-imidazo[4,5-b]pyridin-5-yl)phenyl)acetamide]
< 15 nM	CC(=O)Nc1cccc(-c2ccc3nc(-c4cccnc4N)n(-c4ccc(CN5CCN(c6cncc(C#N)n6)CC5)cc4)c3n2)c1 [Example 40, N-(3-(2-(2-aminopyridin-3-yl)-3-(4-((4-(6-cyanopyrazin-2-yl)piperazin-1-yl)methyl)phenyl)-3H-imidazo[4,5-b]pyridin-5-yl)phenyl)acetamide]
< 15 nM	CC(=O)Nc1cccc(-c2ccc3nc(-c4cccnc4N)n(-c4ccc(CN5CCN(c6cc(C#N)ncn6)CC5)cc4)c3n2)c1 [Example 41, N-(3-(2-(2-Aminopyridin-3-yl)-3-(4-((4-(6-cyanopyrimidin-4-yl)piperazin-1-yl)methyl)phenyl)-3H-imidazo[4,5-b]pyridin-5-yl)phenyl)acetamide]
15 to 60 nM	CC(=O)Nc1cccc(-c2ccc3nc(-c4cccnc4N)n(-c4ccc(CN5CCN(c6cnc(C#N)nc6)CC5)cc4)c3n2)c1 [Example 42, N-(3-(2-(2-Aminopyridin-3-yl)-3-(4-((4-(2-cyanopyrimidin-5-yl)piperazin-1-yl)methyl)phenyl)-3H-imidazo[4,5-b]pyridin-5-yl)phenyl)acetamide]
60 to 600 nM	CC(=O)Nc1cccc(-c2ccc3nc(-c4cccnc4N)n(-c4ccc(CN5CCN(c6cnnc(C#N)c6)CC5)cc4)c3n2)c1 [Example 43, N-(3-(2-(2-Aminopyridin-3-yl)-3-(4-((4-(6-cyanopyridazin-4-yl)piperazin-1-yl)methyl)phenyl)-3H-imidazo[4,5-b]pyridin-5-yl)phenyl)acetamide]
< 15 nM	CC(=O)Nc1cccc(-c2ccc3nc(-c4cccnc4N)n(-c4ccc(CN5CCN(c6ccnc(C#N)n6)CC5)cc4)c3n2)c1 [Example 44, N-(3-(2-(2-Aminopyridin-3-yl)-3-(4-((4-(2-cyanopyrimidin-4-yl)piperazin-1-yl)methyl)phenyl)-3H-imidazo[4,5-b]pyridin-5-yl)phenyl)acetamide]
60 to 600 nM	CC(=O)Nc1cccc(-c2ccc3nc(-c4cccnc4N)n(-c4ccc(CN5CCN(c6cc(C#N)cnn6)CC5)cc4)c3n2)c1 [Example 45, N-(3-(2-(2-Aminopyridin-3-yl)-3-(4-((4-(5-cyanopyridazin-3-yl)piperazin-1-yl)methyl)phenyl)-3H-imidazo[4,5-b]pyridin-5-yl)phenyl)acetamide]
< 15 nM	CC(=O)Nc1cccc(-c2ccc3nc(-c4cccnc4N)n(-c4ccc(CN5CCN(c6nccc(C#N)n6)CC5)cc4)c3n2)c1 [Example 46, N-(3-(2-(2-Aminopyridin-3-yl)-3-(4-((4-(4-cyanopyrimidin-2-yl)piperazin-1-yl)methyl)phenyl)-3H-imidazo[4,5-b]pyridin-5-yl)phenyl)acetamide]
600 to 10000 nM	N#Cc1nccc(NCc2ccc(-n3c(-c4cccnc4N)nc4cccnc43)cc2)n1 [Example 47, 4-((4-(2-(2-Aminopyridin-3-yl)-3H-imidazo[4,5-b]pyridin-3-yl)benzyl)amino)pyrimidine-2-carbonitrile]
< 15 nM	N#Cc1nccc(N2CCN(Cc3ccc(-n4c(-c5cccnc5N)nc5ccc(-c6ccccc6)nc54)cc3)CC2)n1 [Example 49, 4-(4-(4-(2-(2-Aminopyridin-3-yl)-5-phenyl-3H-imidazo[4,5-b]pyridin-3-yl)benzyl)piperazin-1-yl)pyrimidine-2-carbonitrile]
600 to 10000 nM	N#Cc1cnnc(NCc2ccc(-n3c(-c4cccnc4N)nc4cccnc43)cc2)c1 [Example 50, 6-((4-(2-(2-Aminopyridin-3-yl)-3H-imidazo[4,5-b]pyridin-3-yl)benzyl)amino)pyridazine-4-carbonitrile]
600 to 10000 nM	N#Cc1cnnc(NC2CCN(Cc3ccc(-n4c(-c5cccnc5N)nc5cccnc54)cc3)CC2)c1 [Example 51, 6-((1-(4-(2-(2-Aminopyridin-3-yl)-3H-imidazo[4,5-b]pyridin-3-yl)benzyl)piperidin-4-yl)amino)pyridazine-4-carbonitrile]
60 to 600 nM	N#Cc1cnnc(N2CCN(Cc3ccc(-n4c(-c5cccnc5N)nc5ccc(-c6ccccc6)nc54)cc3)CC2)c1 [Example 53, 6-(4-(4-(2-(2-Aminopyridin-3-yl)-5-phenyl-3H-imidazo[4,5-b]pyridin-3-yl)benzyl)piperazin-1-yl)pyridazine-4-carbonitrile]
60 to 600 nM	N#Cc1cnnc(NC2CCN(Cc3ccc(-n4c(-c5cccnc5N)nc5ccc(-c6ccccc6)nc54)cc3)CC2)c1 [Example 54, 6-((1-(4-(2-(2-Aminopyridin-3-yl)-5-phenyl-3H-imidazo[4,5-b]pyridin-3-yl)benzyl)piperidin-4-yl)amino)pyridazine-4-carbonitrile]
15 to 60 nM	N#Cc1cc(C(=O)NC2CCN(Cc3ccc(-n4c(-c5cccnc5N)nc5ccc(-c6ccccc6)nc54)cc3)CC2)ccn1 [Example 55, N-(1-(4-(2-(2-Aminopyridin-3-yl)-5-phenyl-3H-imidazo[4,5-b]pyridin-3-yl)benzyl)piperidin-4-yl)-2-cyanoisonicotinamide]
